Consider five molecules from patent publication US20180311356A1, “METHOD TO INHIBIT ENDOTHELIAL-TO-MESENCHYMAL TRANSITION” (THE CHILDREN'S MEDICAL CENTER CORPORATION, priority 2015, published 2018).

Series [1] has as its system carotid artery endothelial cells (CAEC). Briefly: Cellular migration assay (Transwell), CAEC. It is filed as cell-based, Ovine. Conditions: 6 hour assay; for Migration of CAEC, response to inhibitor: control and TGFβ1-treated CAEC, inhibitor 1.0 μM. The protocol:
(§1) The lower chambers contained 0.1% BSA/EBM-2 media alone or EBM with serum and basic FGF as a chemoattractants. Cells were allowed to migrate for 6 hours at 37° C. (FIG. 6) Cells that migrated through the pores were fixed with methanol and stained with Eosin-Y, Azure A and Methylene Blue for visualization and quantification using Three Step Stain Set (VWR, PA, USA #48218-567).

Series [2] shares this test system. Briefly: EndMT assay with qPCR in TGFβ1-treated CAEC. In kind it is cell-based, Ovine. The settings on record: for EndMT and fibrosis marker mRNA in CAEC: presence or absence of inhibitor. The protocol: (§2) Ovine mitral VEC and CAEC were plated at 10,000 cells/cm^2 on gelatin-coated dishes. After 24 hours, EBM-B was replaced with fresh EBM-B containing 1 ng/ml human TGFβ1 (R&D Systems, MN, USA). Cells were harvested with Liberase ([…]) 96 hours later, and used for flow cytometry. Cells were analyzed simultaneously for VE-cadherin, α-SMA and CD45 by flow cytometry as described above.
(§3) Total cellular RNA was extracted from mitral VEC clones (C5, D1, E5, E10 and E10-2) and CAEC (n=2) with an RNeasy Micro extraction kit (Qiagen, Valencia, Calif., #74004). Reverse transcriptase reactions were performed using an iScript cDNA Synthesis Kit (Bio-Rad, CA, USA #170-8890). qPCR was performed using Kapa Sybr Fast ABI Prism 2×qPCR Master Mix (KAPA BioSystems, MA, USA # KK4604). Amplification was carried out in an ABI 7500 (Applied Biosystems, Foster City, Calif.). A standard curve for each gene was generated to determine amplification efficiency. RPS9 was used as housekeeping gene expression reference. Fold increases in gene expression were calculated according to 2 delta Ct method^28,29, with each amplification reaction performed in triplicate.
For orientation: Real-time PCR tracks product formation cycle by cycle.

Series [3] relates to mitral VEC. Briefly: Cellular migration assay (Transwell), mitral VEC clones. It is filed as cell-based, Ovine. Conditions: for EndMT-increased migration towards serum and bFGF: TGFβ-treated mitral VEC clones (n=3), inhibitor 1.0 μM 30 min before and during 6 hour assay. The protocol:
as §1

Series [4] deals with mitral VEC. Briefly: EndMT assay with qPCR in TGFβ1-treated mitral VEC clones. It is filed as cell-based, Ovine. The settings on record: for NFATc1 mRNA / αSMA, Slug, MMP-2, collagen 1, collagen 3, TGFβ1, TGFβ2 and TGFβ3 mRNA levels: inhibitor 0.5 μM during the 4 day TGFβ1 treatment, mitral VEC clones. The protocol:
as §2, §3

For another series, the system named is TGF-β. The settings on record: cited from earlier work.
Series [5] relates to early stage diffuse cutaneous systemic sclerosis. Conditions: cited from earlier work.
Series [6] concerns mitral VEC. Kind of series: EndMT assay with flow cytometry, mitral VEC clones. In kind it is cell-based, Ovine. The protocol: (§4) Ovine MVs were minced and digested for 30 minutes at 37° C. with Liberase (Roche Diagnostics, IN, USA, #5401119001), a blend of purified collagenases I and II. Isolated cells were fixed using Flow Cytometry Fixation Buffer (R&D Systems, MN, USA, #FC004) and labeled in Flow Cytometry Permeabilization/Wash Buffer I (R&D Systems, MN, USA, #FC005) for 45 minutes (100,000 cells/100 μl Buffer I). Murine anti-human CD45-FITC or -APC (1:50; AbD Serotec, NC, USA, # MCA2220F and #559864), VE-cadherin-PE or -FITC (1:100; R&D Systems, MN, USA, # FAB9381P and AbD Serotec, NC, USA, # AHP628F), and α-smooth muscle actin (αSMA)-APC or -PE (1:100; R&D Systems, MN, USA, # IC1420P and # IC1420A) were used.
as §2
In general terms: A flow cytometer gives signals particle by particle.

Series [7] concerns carotid artery endothelial cells (CAEC). Briefly: EndMT assay with flow cytometry, CAEC. It is filed as cell-based, Ovine. Conditions: TGFβ-treated and non-treated CAECs. Here is the method: as §4, §2
A further series addresses T1, TGF-beta3 (Homo sapiens, UniProt P10600).
T1 sequence (P10600 301-412 limits assumed): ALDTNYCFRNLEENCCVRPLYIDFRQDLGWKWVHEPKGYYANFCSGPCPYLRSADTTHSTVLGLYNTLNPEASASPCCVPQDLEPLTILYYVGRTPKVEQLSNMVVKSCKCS
Conditions: cited from earlier work.

A further series addresses T2, TGF-beta2 (Homo sapiens, UniProt P61812).
T2 sequence (P61812 303-414 limits assumed): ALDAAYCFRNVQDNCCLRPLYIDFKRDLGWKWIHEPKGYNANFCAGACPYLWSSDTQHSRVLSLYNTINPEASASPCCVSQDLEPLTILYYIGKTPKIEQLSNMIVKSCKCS
Conditions: cited from earlier work.

Another series concerns scar formation. The settings on record: first clinical trials; intractable glaucoma patients, trabeculectomy; cited from earlier work.
For series [8], the system named is scarring after glaucoma surgery. The settings on record: rabbits; cited from earlier work.
The mark [9] stands for this setting: listed as CD45 phosphatase inhibitor.
Setting [10] is: qPCR, listed as CD45 phosphatase inhibitor.

With `CC(C)(C)C(=O)Nc1ccc2c(c1)C(=O)C(=O)c1ccccc1-2` [CD45 PTPase inhibitor, N-(9,10-dioxo-9,10-dihydro-phenanthren-2-yl)-2,2-dimethyl propionamide], the “Migration of CAEC, response to inhibitor” value in [1] is “no response”; in series [1] (setting [9]), “no effect”. For the same molecule, the “EndMT and fibrosis marker mRNA in CAEC” value in [2] is on record as “no changes”; in series [2] (setting [9]), “no effect”. For the same molecule, the “EndMT-increased migration towards serum and bFGF” value in the series on mitral VEC [3] is on record as “significantly inhibited”; with mitral VEC [3] (setting [9]), “specifically blocks”. In addition, the “NFATc1 mRNA” value in the series with mitral VEC [4] (qPCR) is on record as “restored”; in the series on mitral VEC [4] (setting [10]), “blocks the decrease”. Besides, the “αSMA, Slug, MMP-2, collagen 1, collagen 3, TGFβ1, TGFβ2 and TGFβ3 mRNA levels” value in the series with mitral VEC [4] (qPCR) is reported as “significantly reduced”; with mitral VEC [4] (setting [10]) it was “reduces”. Also, the “induction of 7 EndMT/fibrosis markers (α-SMA, Slug, MMP2, NFATc1, TGFβ2, collagen 1 and collagen 3)” value with mitral VEC [4] (summary statement) is “blocks”.

For `Cc1ccc(=O)n(-c2ccccc2)c1` [Pirfenidone, 5-methyl-1-phenyl-2(1H)-pyridone], the “TGF-β promoter activity, TGF-β protein secretion, TGF-β-induced Smad2 phosphorylation and generation of reactive oxygen species” value in the series on TGF-β is listed as “reduces”.

CAT-192: a TGF-β1 neutralizing antibody: in series [5] (in vivo), the adverse events entry is on record as “more adverse events”. The “effect on early stage diffuse cutaneous systemic sclerosis” value in series [5] (phase I/II trial NCT00043706) is recorded as “did not show effect”.

“TGFβ1: human TGFβ1 (R&D Systems), used at 1 ng/ml to induce EndMT”: the “migration of CAEC after TGFβ treatment” value in series [1] (CAEC) is given as “no increase”. Further, the “CD45, VE-cadherin or αSMA mRNA levels in CAEC” value in [2] was “No changes”. Further, the “migration towards serum and bFGF after TGFβ treatment” value with mitral VEC [3] (mitral VEC clones (n=3), TGFβ1 4 days, 6 hour assay) is given as “significantly increased”. For the same molecule, the “Collagen 1, collagen 3, TGFβ1, TGFβ2 and TGFβ3 mRNA transcripts” value in the series with mitral VEC [4] (TGFβ1-treated mitral VEC clones, qPCR) was “increased”. Further, the “Slug, MMP2 and NFATc1 mRNA” value in the series on mitral VEC [4] (TGFβ1-treated mitral VEC, qPCR) was “modulated as expected”. The “CD45 and αSMA mRNA” value in the series on mitral VEC [4] (five mitral VEC clones, TGFβ1 4 days, qPCR) is reported as “significant increases”. The “α-SMA, flow cytometry” value with mitral VEC [6] (TGFβ1-treated mitral VEC clones) is given as “significantly increased”. Moreover, in the series on mitral VEC [6] (TGFβ1-treated mitral VEC, data not shown), the “CD11b and CD14 expression, flow cytometry” value is recorded as “No expression was detected”. Further, in the series with mitral VEC [6] (four additional mitral VEC clones treated with TGFβ1 1 ng/ml 96 hours), the “cells positive for CD45” value is 19-88%. Moreover, the “CD45 and αSMA expression, flow cytometry” value in the series with mitral VEC [6] (mitral VEC clone E10, 1 ng/ml TGFβ1, 96 hours) is listed as “strong induction”. Besides, the “CD45, flow cytometry” value in the series with mitral VEC [6] (seven mitral VEC clones, 4 day exposure to TGFβ1) is recorded as “significantly increased”. The “CD45 or αSMA expression in CAEC, flow cytometry” value in series [7] is given as “did not express”.

B1: CAT-152: fully human TGF-beta2 neutralizing antibody (antibody, chains of the INN, looked up, V domains shown)
VH: EVQLVESGGGVVQPGRSLRLSCAASGFTFSSYGMHWVRQAPGKGLEWVAVIWYDGSNKYYADSVKGRFTISRDNSKNTLYLQMDSLRAEDTAVYYCGRTLESSLWGQGTLVTVSS
VL: SSELTQDPAVSVALGQTVRITCQGDSLRSYYASWYQQKPGQAPVLVIYGKNNRPSGIPDRFSGSSSGNTASLTITGAQAEDEADYYCNSRDSSSTHRGVFGGGTKLTVL
For B1, the “affinity for TGF-beta3” value with TGF-beta3 was “lower affinity”. Further, in the series with TGF-beta2, the “affinity for TGF-beta2” value is reported as “high affinity”. In addition, the scar formation result with scar formation is given as “possible effects”. Further, the “scarring after glaucoma surgery” value in series [8] is “capable of inhibiting”.
